Results as given in patent publication US20220330549A1, “USE OF N-BENZYLBENZAMIDE-BASED COMPOUND AS HERBICIDE” (Northwest A&F University, priority 2020, published 2022).

Key:
Type in all cases: in vivo
Broadleaf weed = experiment: Post-emergence herbicidal activity test in a paddy field; set-up: key: level scale; higher level = more weed left vs blank control; details: 150 g a.i./ha (penoxsulam control 250 g(a.i.)/h)
Procedure, shortened: (§1)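 Efficacy was visually estimated 15 and 30 days after spraying, grading weed coverage relative to an untreated neighbouring plot (level 2 = 0 to 2.5%, level 9 = 67.6 to 100%). Treatments were 150 g(a.i.)/ha from 10% emulsifiable concentrates applied at the 4-5 leaf rice stage, four repeats of 50 m^2 each.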

Gramineae = experiment: as above; set-up: key: level scale; higher level = more weed left vs blank control; details: 150 g a.i./ha (penoxsulam control 250 g(a.i.)/h)
Procedure, shortened: as §1

Cyperaceae = experiment: as above; set-up: key: level scale; higher level = more weed left vs blank control; details: 150 g a.i./ha (penoxsulam control 250 g(a.i.)/h)
Procedure, shortened: as §1

nutgrass flatsedge = experiment: Field test for weed control in a corn field; details: 150 g a.i./ha, after treatment
Procedure, shortened: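 Herbicidal effect on nutgrass flatsedge was measured in a field planted with corn, using the GB/T 17980.42-2000 method. Emulsifiable concentrates (10%) in water were sprayed at 150 g(a.i.)/ha during the 2-leaf to 5-leaf corn stage, on 20 m^2 plots repeated 4 times. 25% mesotrione oil dispersion was the control agent. Activity was scored from 1 to 9 by weed remaining relative to blank control plots.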

green bristlegrass [1] = experiment: Field test for weed control in a corn field; details: 150 g a.i./ha, after treatment
Procedure, shortened: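 Herbicidal activity against green bristlegrass was assessed in corn field plots of 20 m^2 per GB/T 17980.42-2000. Test agents, formulated as 10% emulsifiable concentrates, were applied in water at 150 g(a.i.)/ha at the corn 2 leaves to 5 leaves stage, repeated 4 times. A 25% mesotrione oil dispersion served as the control agent, and weed damage was rated on levels 1-9.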

goosegrass = experiment: Field test for weed control in a corn field; details: 150 g a.i./ha, after treatment
Procedure, shortened: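 In this field trial in corn, run per GB/T 17980.42-2000, test agents prepared as 10% emulsifiable concentrates were applied in water as sprays at 150 g(a.i.)/ha at the 2- to 5-leaf corn stage. Each treatment covered 20 m^2 and was repeated 4 times. Goosegrass control was scored 1-9 relative to weed remaining in blank control areas.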

Amaranthus retroflexus [2] = experiment: Field test for weed control in a corn field; details: 150 g a.i./ha, 30 days after treatment
Procedure, shortened: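 Post-emergence control of Amaranthus retroflexus was assessed in corn plots using the GB/T 17980.42-2000 method. Emulsifiable concentrates (10%) in water were applied by spraying at the 2- to 5-leaf crop stage on 20 m^2 plots, four replicates each, alongside a mesotrione 25% oil dispersion reference. Herbicidal activity was scored on 1-9 levels by weed amount relative to blank control areas.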

Acalypha australis = experiment: Field test for weed control in a corn field; details: 150 g a.i./ha, after treatment
Procedure, shortened: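 Herbicidal activity against weeds was assessed in corn plots by the GB/T 17980.42-2000 method. Corn at the 2–5 leaf stage received water sprays of 10% emulsifiable concentrates at 150 g(a.i.)/ha, four repeats per treatment over 20 m^2. A 25% mesotrione oil dispersion was the reference. Damage symptoms and severity were rated on levels 1-9 relative to weeds in the blank control area.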

Barnyard grass [3] = experiment: Field test for weed control in a corn field; details: 150 g a.i./ha, 30 days after treatment
Procedure, shortened: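 Herbicidal activity against barnyard grass was assessed in corn field plots of 20 m^2, with four replicates per treatment. Compounds were applied as water-diluted 10% emulsifiable concentrates at 150 g(a.i.)/ha at the 2-5 leaf corn stage, with 25% mesotrione oil dispersion as the reference agent. Damage was scored on a 1-9 scale against untreated blank plots.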

Convolvulus arvensis = experiment: Field test for weed control in a corn field; details: 150 g a.i./ha, after treatment
Procedure, shortened: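 Post-emergence herbicidal activity on Convolvulus arvensis was scored in a corn field on a 1-9 scale, based on symptoms and damage severity. Each level corresponds to the weed remaining as a percentage of the blank control area. Sprays of 10% emulsifiable concentrate at 150 g(a.i.)/ha went on at the corn 2–5 leaf stage, with four replicates of 20 m^2 per treatment.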

Solanum nigrum = experiment: Field test for weed control in a corn field; details: 150 g a.i./ha, 30 days after treatment
Procedure, shortened: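 In a corn field trial based on GB/T 17980.42-2000, 10% emulsifiable concentrates diluted in water were sprayed at 150 g(a.i.)/ha at the 2 to 5 leaf stage of corn. Each treatment used 20 m^2 plots and was repeated 4 times, with 25% mesotrione oil dispersion as the reference agent. Solanum nigrum damage was scored on a 1-9 scale against blank control plots.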

Portulaca oleracea = experiment: Field test for weed control in a corn field; details: 150 g a.i./ha, after treatment
Procedure, shortened: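 Post-emergence weed control was evaluated in a corn field by the GB/T 17980.42-2000 method. Emulsifiable concentrates (10%) in water were applied as sprays at 150 g(a.i.)/ha at the 2-5 leaf corn stage, in four replicate 20 m^2 plots. A 25% mesotrione oil dispersion served as control agent. Effects were graded 1-9 relative to weed remaining in blank control areas.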

Chenopodium album = experiment: Field test for weed control in a corn field; details: 150 g a.i./ha, after treatment
Procedure, shortened: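 Field weed-control testing in corn, run per GB/T 17980.42-2000, scored Chenopodium album on a 1-9 level scale, where each level matches a percentage range of weed remaining relative to the blank control area. Sprays of 10% emulsifiable concentrates in water delivered 150 g(a.i.)/ha at the corn 2-leaf to 5-leaf stage on 20 m^2 plots, four replicates each. Mesotrione 25% oil dispersion served as reference.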

Digitaria sanguinalis [4] = experiment: Field test for weed control in a corn field; details: 150 g a.i./ha, after treatment
Procedure, shortened: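 Field trial in a corn field following GB/T 17980.42-2000. Test compounds were formulated as 10% emulsifiable concentrates, diluted in water and sprayed post-emergence at 150 g(a.i.)/ha when corn had 2 to 5 leaves, with 4 replicates on 20 m^2 plots. Control of Digitaria sanguinalis was scored on a 1-9 scale based on weed damage relative to the untreated blank area.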

green bristlegrass [5] = experiment: Herbicidal activity test for indoor pre-emergence soil treatment; set-up: key: level 1-9; higher = more weed remaining vs blank control; details: 150 g a.i./ha, visual inspection 21 days after treatment
Procedure, shortened: (§2)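 Compounds were formulated as 10% emulsifiable concentrates and sprayed onto the soil 24 h after sowing, at 150 g(a.i.)/ha. Soil was sandy loam (≤2% organic matter), with seeds under 0.5–2.0 cm cover, per NY/T 1155.3-2006. Visual 1–9 ratings relative to blank control were made after 21 days.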

Barnyard grass [6] = experiment: as above; set-up: key: level 1-9; higher = more weed remaining vs blank control; details: 150 g a.i./ha, visual inspection 21 days after treatment
Procedure, shortened: as §2

Piemarker [7] = experiment: as above; set-up: key: level 1-9; higher = more weed remaining vs blank control; details: 150 g a.i./ha, visual inspection 21 days after treatment
Procedure, shortened: as §2

Humulus scandens [8] = experiment: as above; details: 150 g a.i./ha, visual inspection 21 days after treatment
Procedure, shortened: as §2

Amaranthus retroflexus [9] = experiment: as above; set-up: key: 1-9 levels; higher = more weed remaining vs blank control; details: 150 g a.i./ha, visual inspection 21 days after treatment
Procedure, shortened: as §2

Digitaria sanguinalis [10] = experiment: as above; set-up: key: 1-9 levels; higher = more weed remaining vs blank control; details: 150 g a.i./ha, visual inspection 21 days after treatment
Procedure, shortened: as §2

green bristlegrass [11] = experiment: Herbicidal activity test for indoor post-emergence spraying on stems and leaves; set-up: key: grade level by weed remaining vs blank control, e.g. 5 = 10.1-15%; details: 150 g a.i./ha, visual inspection 21 days after treatment
Procedure, shortened: (§3)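 Weeds were grown in a greenhouse from seed and treated by foliar spraying after emergence, per the NY/T 1155.4-2006 method. Visual grading at 21 days: each level reflects the share of weed remaining versus the untreated blank control area.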

Amaranthus retroflexus [12] = experiment: as above; set-up: key: grade level by weed remaining vs blank control, e.g. 5 = 10.1-15%; details: 150 g a.i./ha, visual inspection 21 days after treatment
Procedure, shortened: as §3

Barnyard grass [13] = experiment: as above; set-up: key: grade level by weed remaining vs blank control, e.g. 5 = 10.1-15%; details: 150 g a.i./ha, visual inspection 21 days after treatment
Procedure, shortened: as §3

Piemarker [14] = experiment: as above; set-up: key: grade level by weed remaining vs blank control, e.g. 5 = 10.1-15%; details: 150 g a.i./ha, visual inspection 21 days after treatment
Procedure, shortened: as §3

Humulus scandens [15] = experiment: as above; set-up: key: grade level by weed remaining vs blank control, e.g. 5 = 10.1-15%; details: 150 g a.i./ha, visual inspection 21 days after treatment
Procedure, shortened: as §3

Digitaria sanguinalis [16] = experiment: as above; set-up: key: grade level by weed remaining vs blank control, e.g. 5 = 10.1-15%; details: 150 g a.i./ha, visual inspection 21 days after treatment
Procedure, shortened: as §3

Row | SMILES | Herbicidal activity 15 days after treatment Broadleaf weed (Broadleaf weed) | Herbicidal activity 30 days after treatment Broadleaf weed (Broadleaf weed) | Herbicidal activity 15 days after treatment Gramineae (Gramineae) | Herbicidal activity 30 days after treatment Gramineae (Gramineae) | Herbicidal activity 15 days after treatment Cyperaceae (Cyperaceae) | Herbicidal activity 30 days after treatment Cyperaceae (Cyperaceae) | Post-emergence weed control effect, Nutgrass flatsedge (nutgrass flatsedge) | Post-emergence weed control effect, Green bristlegrass (green bristlegrass [1]) | Post-emergence weed control effect, Goose grass (goosegrass) | Post-emergence weed control effect, Amaranthus retroflexus (Amaranthus retroflexus [2]) | Post-emergence weed control effect, Acalypha australis (Acalypha australis) | Post-emergence weed control effect, Barnyard grass (Barnyard grass [3]) | Post-emergence weed control effect, Convolvulus arvensis (Convolvulus arvensis) | Post-emergence weed control effect, Solanum nigrum (Solanum nigrum) | Post-emergence weed control effect, Portulaca oleracea (Portulaca oleracea) | Post-emergence weed control effect, Chenopodium album (Chenopodium album) | Post-emergence weed control effect, Digitaria sanguinalis (Digitaria sanguinalis [4]) | Herbicidal Activity Green bristlegrass (green bristlegrass [5]) | Herbicidal Activity Barnyard grass (Barnyard grass [6]) | Herbicidal Activity Piemarker (Piemarker [7]) | other results
1 | COc1ccccc1C(=O)NCc1cccc(C)c1 [Compound A14, 2-methoxy-N-(3-methylbenzyl)benzamide] | 1 | 2 (equivalent to 0 to 2.5% of the weed in the blank control area) | 1 | 2 (equivalent to 0 to 2.5% of the weed in the blank control area) | 1 | 2 (equivalent to 0 to 2.5% of the weed in the blank control area) | 2 (equivalent to 0 to 2.5% of the weed in the blank control area) | 1 | 1 | 1 | 2 (equivalent to 0 to 2.5% of the weed in the blank control area) | 1 | 1 | 2 (equivalent to 0 to 2.5% of the weed in the blank control area) | 1 | 1 | 2 (equivalent to 0 to 2.5% of the weed in the blank control area) | 1 | 2 (equivalent to 0 to 2.5% of the weed in the blank control area) | 1 | Herbicidal Activity Humulus scandens (Humulus scandens [8]): 3 (equivalent to 2.6 to 5% of the weed in the blank control area); Herbicidal Activity Amaranthus retroflexus (Amaranthus retroflexus [9]): 2 (equivalent to 0 to 2.5% of the weed in the blank control area); Herbicidal Activity Digitaria sanguinalis (Digitaria sanguinalis [10]): 2 (equivalent to 0 to 2.5% of the weed in the blank control area); Herbicidal Activity Green bristlegrass (green bristlegrass [11]): 1; Herbicidal Activity Amaranthus retroflexus (Amaranthus retroflexus [12]): 1; Herbicidal Activity Barnyard grass (Barnyard grass [13]): 2 (equivalent to 0 to 2.5% of the weed in the blank control area); Herbicidal Activity Piemarker (Piemarker [14]): 1; Herbicidal Activity Humulus scandens (Humulus scandens [15]): 1; Herbicidal Activity Digitaria sanguinalis (Digitaria sanguinalis [16]): 1
2 | COc1ccc(OC)c(C(=O)NCc2cccc(F)c2)c1 [Compound A22, N-(3-fluorobenzyl)-2,5-dimethoxybenzamide] | 2 (equivalent to 0 to 2.5% of the weed in the blank control area) | 1 | 1 | 1 | 2 (equivalent to 0 to 2.5% of the weed in the blank control area) | 1 | 2 (equivalent to 0 to 2.5% of the weed in the blank control area) | 2 (equivalent to 0 to 2.5% of the weed in the blank control area) | 2 (equivalent to 0 to 2.5% of the weed in the blank control area) | 1 | 2 (equivalent to 0 to 2.5% of the weed in the blank control area) | 2 (equivalent to 0 to 2.5% of the weed in the blank control area) | 1 | 2 (equivalent to 0 to 2.5% of the weed in the blank control area) | 1 | 1 | 1 | 2 (equivalent to 0 to 2.5% of the weed in the blank control area) | 1 | 2 (equivalent to 0 to 2.5% of the weed in the blank control area) | Herbicidal Activity Humulus scandens (Humulus scandens [8]): 4 (equivalent to 5.1 to 10% of the weed in the blank control area); Herbicidal Activity Amaranthus retroflexus (Amaranthus retroflexus [9]): 2 (equivalent to 0 to 2.5% of the weed in the blank control area); Herbicidal Activity Digitaria sanguinalis (Digitaria sanguinalis [10]): 1; Herbicidal Activity Green bristlegrass (green bristlegrass [11]): 2 (equivalent to 0 to 2.5% of the weed in the blank control area); Herbicidal Activity Amaranthus retroflexus (Amaranthus retroflexus [12]): 1; Herbicidal Activity Barnyard grass (Barnyard grass [13]): 1; Herbicidal Activity Piemarker (Piemarker [14]): 1; Herbicidal Activity Humulus scandens (Humulus scandens [15]): 1; Herbicidal Activity Digitaria sanguinalis (Digitaria sanguinalis [16]): 1
